Tests used:
Assay in all cases: Bliss interaction score (quartile over a dose matrix) (fitness difference); higher = more antagonism (negative = synergy)
B. subtilis 168 = tested on: B. subtilis 168
How it was run: (§1)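 Combination data were used to infer fitness under each single drug. Fitness is the OD595 at entry into stationary phase divided by the robust mean of the plate's no-drug wells, with a cap of 1. The Bliss score is the observed minus the expected product fitness, summarised by quartiles over technical, biological and donor/recipient replicates.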

S. aureus DSM 20231 = tested on: S. aureus DSM 20231
How it was run: as §1

S. aureus Newman = tested on: S. aureus Newman
How it was run: as §1

S. pneumoniae D39V = tested on: S. pneumoniae D39V
How it was run: as §1
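Further: first quartile when negative (synergy) and third quartile when positive (antagonism).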

SMILES	Bliss interaction score (B. subtilis 168)	Bliss interaction score (S. aureus DSM 20231)	Bliss interaction score (S. aureus Newman)	Bliss interaction score (S. pneumoniae D39V)	Bliss interaction score (B. subtilis 168; main component drawn)	Bliss interaction score (S. aureus DSM 20231; main component drawn)	Bliss interaction score (S. aureus Newman; main component drawn)	Bliss interaction score (S. pneumoniae D39V; main component drawn)
C[C@H]1c2cccc(O)c2C(=O)C2=C(O)[C@]3(O)C(=O)C(C(N)=O)=C(O)[C@@H](N(C)C)[C@@H]3[C@@H](O)[C@@H]21 [Doxycycline] + CC[C@H]1OC(=O)[C@H](C)C(=O)[C@H](C)[C@@H](O[C@@H]2O[C@H](C)C[C@H](N(C)C)[C@H]2O)[C@](C)(OC)C[C@@H](C)C(=O)[C@H](C)[C@H]2N(CCCCn3cnc(-c4cccnc4)c3)C(=O)O[C@]12C [Telithromycin]	-0.326	-0.0892	-0.0224	-0.261	–	–	–	–
C[C@H]1c2cccc(O)c2C(=O)C2=C(O)[C@]3(O)C(=O)C(C(N)=O)=C(O)[C@@H](N(C)C)[C@@H]3[C@@H](O)[C@@H]21 [Doxycycline] + CC[C@H]1OC(=O)[C@H](C)[C@@H](O[C@H]2C[C@@](C)(OC)[C@@H](O)[C@H](C)O2)[C@H](C)[C@@H](O[C@@H]2O[C@H](C)C[C@H](N(C)C)[C@H]2O)[C@](C)(O)C[C@@H](C)C(=O)[C@H](C)[C@@H](O)[C@]1(C)O [Erythromycin]	-0.162	-0.0389	-0.0251	-0.161	–	–	–	–
C[C@H]1c2cccc(O)c2C(=O)C2=C(O)[C@]3(O)C(=O)C(C(N)=O)=C(O)[C@@H](N(C)C)[C@@H]3[C@@H](O)[C@@H]21 [Doxycycline] + CN[C@H](CC(C)C)C(=O)N[C@H]1C(=O)N[C@@H](CC(N)=O)C(=O)N[C@H]2C(=O)N[C@H]3C(=O)N[C@H](C(=O)N[C@H](C(=O)O)c4cc(O)cc(O)c4-c4cc3ccc4O)[C@H](O[C@H]3C[C@](C)(N)[C@@H](O)[C@H](C)O3)c3ccc(c(Cl)c3)Oc3cc2cc(c3O[C@@H]2O[C@H](CO)[C@@H](O)[C@H](O)[C@H]2O[C@H]2C[C@](C)(NCc3ccc(-c4ccc(Cl)cc4)cc3)[C@@H](O)[C@H](C)O2)Oc2ccc(cc2Cl)[C@H]1O [Oritavancin]	0.0303	-0.0271	0.0145	0.0456	–	–	–	–
C[C@H]1c2cccc(O)c2C(=O)C2=C(O)[C@]3(O)C(=O)C(C(N)=O)=C(O)[C@@H](N(C)C)[C@@H]3[C@@H](O)[C@@H]21 [Doxycycline] + CO[C@@]12[C@H](COC(N)=O)C3=C(C(=O)C(C)=C(N)C3=O)N1C[C@@H]1N[C@@H]12 [MitomycinC]	0.0704	-0.0478	0.0515	-0.0943	–	–	–	–
C[C@H]1c2cccc(O)c2C(=O)C2=C(O)[C@]3(O)C(=O)C(C(N)=O)=C(O)[C@@H](N(C)C)[C@@H]3[C@@H](O)[C@@H]21 [Doxycycline] + Oc1cc(Cl)ccc1Oc1ccc(Cl)cc1Cl [Triclosan]	-0.0554	-0.0352	0.0244	0.0668	–	–	–	–
C[C@@H]1O[C@@H]1P(=O)(O)O [Fosfomycin] + CC1(C)S[C@@H]2[C@H](NC(=O)Cc3ccccc3)C(=O)N2[C@H]1C(=O)O [PenicillinG]	-0.0401	-0.136	0.0465	-0.0713	–	–	–	–
C[C@@H]1O[C@@H]1P(=O)(O)O [Fosfomycin] + CC(=O)O[C@H]1C[C@@]2(C)[C@@H](C[C@@H](O)[C@H]3[C@@]4(C)CC[C@@H](O)[C@@H](C)[C@@H]4CC[C@@]32C)/C1=C(\CCC=C(C)C)C(=O)O [Fusidic acid]	0.0895	0.0457	-0.0179	0.0774	–	–	–	–
C[C@@H]1O[C@@H]1P(=O)(O)O [Fosfomycin] + CC[C@H]1OC(=O)[C@H](C)C(=O)[C@H](C)[C@@H](O[C@@H]2O[C@H](C)C[C@H](N(C)C)[C@H]2O)[C@](C)(OC)C[C@@H](C)C(=O)[C@H](C)[C@H]2N(CCCCn3cnc(-c4cccnc4)c3)C(=O)O[C@]12C [Telithromycin]	0.0824	0.0337	-0.0576	-0.0329	–	–	–	–
C[C@@H]1O[C@@H]1P(=O)(O)O [Fosfomycin] + CN[C@H](CC(C)C)C(=O)N[C@H]1C(=O)N[C@@H](CC(N)=O)C(=O)N[C@H]2C(=O)N[C@H]3C(=O)N[C@H](C(=O)N[C@H](C(=O)O)c4cc(O)cc(O)c4-c4cc3ccc4O)[C@H](O[C@H]3C[C@](C)(N)[C@@H](O)[C@H](C)O3)c3ccc(c(Cl)c3)Oc3cc2cc(c3O[C@@H]2O[C@H](CO)[C@@H](O)[C@H](O)[C@H]2O[C@H]2C[C@](C)(NCc3ccc(-c4ccc(Cl)cc4)cc3)[C@@H](O)[C@H](C)O2)Oc2ccc(cc2Cl)[C@H]1O [Oritavancin]	0.0255	0.0683	0.0953	-0.0314	–	–	–	–
C[C@@H]1O[C@@H]1P(=O)(O)O [Fosfomycin] + CO[C@@]12[C@H](COC(N)=O)C3=C(C(=O)C(C)=C(N)C3=O)N1C[C@@H]1N[C@@H]12 [MitomycinC]	-0.116	0.0499	-0.095	0.117	–	–	–	–
C[C@@H]1O[C@@H]1P(=O)(O)O [Fosfomycin] + Oc1cc(Cl)ccc1Oc1ccc(Cl)cc1Cl [Triclosan]	-0.0701	0.0662	0.0573	0.0597	–	–	–	–
Cc1ncc([N+](=O)[O-])n1CCO [Metronidazole] + CC1(C)S[C@@H]2[C@H](NC(=O)Cc3ccccc3)C(=O)N2[C@H]1C(=O)O [PenicillinG]	0.0322	0.0819	0.0592	0.114	–	–	–	–
Cc1ncc([N+](=O)[O-])n1CCO [Metronidazole] + CC[C@H]1OC(=O)[C@H](C)C(=O)[C@H](C)[C@@H](O[C@@H]2O[C@H](C)C[C@H](N(C)C)[C@H]2O)[C@](C)(OC)C[C@@H](C)C(=O)[C@H](C)[C@H]2N(CCCCn3cnc(-c4cccnc4)c3)C(=O)O[C@]12C [Telithromycin]	0.0709	0.0599	0.0357	0.157	–	–	–	–
Cc1ncc([N+](=O)[O-])n1CCO [Metronidazole] + CN[C@H](CC(C)C)C(=O)N[C@H]1C(=O)N[C@@H](CC(N)=O)C(=O)N[C@H]2C(=O)N[C@H]3C(=O)N[C@H](C(=O)N[C@H](C(=O)O)c4cc(O)cc(O)c4-c4cc3ccc4O)[C@H](O[C@H]3C[C@](C)(N)[C@@H](O)[C@H](C)O3)c3ccc(c(Cl)c3)Oc3cc2cc(c3O[C@@H]2O[C@H](CO)[C@@H](O)[C@H](O)[C@H]2O[C@H]2C[C@](C)(NCc3ccc(-c4ccc(Cl)cc4)cc3)[C@@H](O)[C@H](C)O2)Oc2ccc(cc2Cl)[C@H]1O [Oritavancin]	-0.0222	0.0377	0.0752	-0.0396	–	–	–	–
Cc1ncc([N+](=O)[O-])n1CCO [Metronidazole] + CO[C@@]12[C@H](COC(N)=O)C3=C(C(=O)C(C)=C(N)C3=O)N1C[C@@H]1N[C@@H]12 [MitomycinC]	0.132	0.0443	0.0511	0.0827	–	–	–	–
Cc1ncc([N+](=O)[O-])n1CCO [Metronidazole] + Clc1ccc(COC(Cn2ccnc2)c2ccc(Cl)cc2Cl)c(Cl)c1 [Miconazole]	0.0471	0.0327	0.0522	0.0478	–	–	–	–
Cc1ncc([N+](=O)[O-])n1CCO [Metronidazole] + Oc1cc(Cl)ccc1Oc1ccc(Cl)cc1Cl [Triclosan]	0.0396	0.0778	0.0457	0.0696	–	–	–	–
CC1(C)S[C@@H]2[C@H](NC(=O)Cc3ccccc3)C(=O)N2[C@H]1C(=O)O [PenicillinG] + C/C(=C\C(=O)OCCCCCCCCC(=O)O)C[C@@H]1OC[C@H](C[C@@H]2O[C@H]2[C@@H](C)[C@H](C)O)[C@@H](O)[C@H]1O [Pseudomonic acid]	0.0659	0.0362	0.0196	0.0842	–	–	–	–
CC1(C)S[C@@H]2[C@H](NC(=O)Cc3ccccc3)C(=O)N2[C@H]1C(=O)O [PenicillinG] + CC1=C\[C@@H](O)CC(=O)Cc2nc(co2)C(=O)N2CCC=C2C(=O)O[C@H](C(C)C)[C@H](C)/C=C/C(=O)NC\C=C\1 [Virginiamycin M1]	0.0479	-0.0526	0.0409	0.099	–	–	–	–
CC1(C)S[C@@H]2[C@H](NC(=O)Cc3ccccc3)C(=O)N2[C@H]1C(=O)O [PenicillinG] + CCCCCCCCCC(=O)N[C@@H]1[C@H]([C@@H]([C@H](O[C@H]1OC2=C3C=C4C=C2OC5=C(C=C(C=C5)[C@H]([C@H]6C(=O)N[C@@H](C7=C(C(=CC(=C7)O)OC8[C@H]([C@H]([C@@H]([C@H](O8)CO)O)O)O)C9=C(C=CC(=C9)[C@H](C(=O)N6)NC(=O)[C@@H]4NC(=O)[C@@H]1C2=CC(=CC(=C2)OC2=C(C=CC(=C2)[C@H](C(=O)N[C@H](CC2=CC(=C(O3)C=C2)Cl)C(=O)N1)N)O)O)O)C(=O)O)O[C@H]1[C@@H]([C@H]([C@@H]([C@H](O1)CO)O)O)NC(=O)C)Cl)CO)O)O [Teicoplanin]	–	–	–	–	-0.176	-0.0396	0.0744	-0.0521
CC1(C)S[C@@H]2[C@H](NC(=O)Cc3ccccc3)C(=O)N2[C@H]1C(=O)O [PenicillinG] + CCN(CC)CCOC(=O)c1ccc(N)cc1 [Procaine]	0.0367	-0.0657	0.0542	0.0857	–	–	–	–
CC1(C)S[C@@H]2[C@H](NC(=O)Cc3ccccc3)C(=O)N2[C@H]1C(=O)O [PenicillinG] + CC[C@H]1OC(=O)[C@H](C)C(=O)[C@H](C)[C@@H](O[C@@H]2O[C@H](C)C[C@H](N(C)C)[C@H]2O)[C@](C)(OC)C[C@@H](C)C(=O)[C@H](C)[C@H]2N(CCCCn3cnc(-c4cccnc4)c3)C(=O)O[C@]12C [Telithromycin]	0.0511	0.0277	-0.0465	0.0452	–	–	–	–
CC1(C)S[C@@H]2[C@H](NC(=O)Cc3ccccc3)C(=O)N2[C@H]1C(=O)O [PenicillinG] + CN1C2=CC=CC=C2N=C3C1=CC=CC3=O [Pyocyanin]	-0.0227	0.0541	0.0699	0.144	–	–	–	–
CC1(C)S[C@@H]2[C@H](NC(=O)Cc3ccccc3)C(=O)N2[C@H]1C(=O)O [PenicillinG] + CN(C)c1cc(NC(=O)CNC(C)(C)C)c(O)c2c1C[C@H]1C[C@H]3[C@H](N(C)C)C(O)=C(C(N)=O)C(=O)[C@@]3(O)C(O)=C1C2=O [Tigecycline]	0.0408	-0.0277	0.0515	-0.103	–	–	–	–
CC1(C)S[C@@H]2[C@H](NC(=O)Cc3ccccc3)C(=O)N2[C@H]1C(=O)O [PenicillinG] + CN(N=O)C(=O)N[C@@H](C=O)[C@@H](O)[C@H](O)[C@H](O)CO [Streptozotocin]	0.0513	-0.0545	-0.0606	0.0394	–	–	–	–
CC1(C)S[C@@H]2[C@H](NC(=O)Cc3ccccc3)C(=O)N2[C@H]1C(=O)O [PenicillinG] + CN[C@@H]1[C@H](O)[C@H](NC)[C@H]2O[C@@]3(O)C(=O)C[C@@H](C)O[C@H]3O[C@@H]2[C@H]1O [Spectinomycin]	0.0272	-0.0365	-0.0496	0.0325	–	–	–	–
CC1(C)S[C@@H]2[C@H](NC(=O)Cc3ccccc3)C(=O)N2[C@H]1C(=O)O [PenicillinG] + CN[C@@H]1[C@H](O[C@H]2[C@H](O[C@H]3[C@H](O)[C@@H](O)[C@H](N=C(N)N)[C@@H](O)[C@@H]3N=C(N)N)O[C@@H](C)[C@]2(O)C=O)O[C@@H](CO)[C@H](O)[C@H]1O [Streptomycin]	0.0319	-0.0333	-0.0403	-0.119	–	–	–	–
CC1(C)S[C@@H]2[C@H](NC(=O)Cc3ccccc3)C(=O)N2[C@H]1C(=O)O [PenicillinG] + CN[C@H](CC(C)C)C(=O)N[C@H]1C(=O)N[C@@H](CC(N)=O)C(=O)N[C@H]2C(=O)N[C@H]3C(=O)N[C@H](C(=O)N[C@H](C(=O)O)c4cc(O)cc(O)c4-c4cc3ccc4O)[C@H](O)c3ccc(c(Cl)c3)Oc3cc2cc(c3O[C@@H]2O[C@H](CO)[C@@H](O)[C@H](O)[C@H]2O[C@H]2C[C@](C)(N)[C@H](O)[C@H](C)O2)Oc2ccc(cc2Cl)[C@H]1O [Vancomycin]	-0.039	-0.0205	0.0603	-0.162	–	–	–	–

From the supplement of paper PMC10627819
